“Also recorded” adds a separate entry of the source. Read-outs that look alike come from different tables or passages of the source. Marks after values point to notes of the source that are not given here.
What was measured:
[1] = system: RN 4220 S. aureus, plasmid pIP 855; format: cell-based; settings: without substance 1.8
[2] = system: E. coli K12 J5-3 (R16) donor to E. coliχ1037 recipient; settings: donor E. coli K12 J5-3 (R16)
Description: (§1) We made tenfold dilutions of fresh donor culture of E. coli C600 R144 drd-3 and of fresh recipient culture resistant to i^r and in some cases to nalid-x acid of E. coli K12 W1 at optical density of 0.4 ([…]), then we mixed together 1.0 ml of donor culture and 1.0 ml of recipient culture and kept the samples at the temperature 37° C. 0 to 24 hours in presence of the applied compounds.
(§2) As control the mixture of donor and recipient cultures of the same proportion was incubated.
(§3) We performed experiments of two types to clarify the manner of action. The donor cells were previously treated during 5 minutes with the compound to be examined being in corresponding concentration, and the recipient cells were added thereafter in the experiments of one type The compounds to be examined were added 5 minutes after mixing together the donor and recipient cultures in the experiments of the other type. The target of our examinations was the inhibition of the conjugated transfer at the formed pairs. We made tenfold dilutions of the samples with physiological saline solution, the formed pairs of cells were divided by shaking during 1 minute then we made following dilutions where no more resistance transfer passed (see. Beverley and fellow-workers, 1981).
(§4) We streaked quantities of 0.1 ml form the dilutions onto MTE agar plates containing 50 μg/ml of kanamycine and onto plates containing 500 μg/ml of sodium azide to determine the number of recombinants. The number of donor bacteria was established only on the culture medium containing kanamycine, the number of recipient ones was established only on the culture medium containing sodium azide. The plates were kept during 48 hours at 37° C.

[3] = system: E. coli K12 J5-3 (R386) donor to E. coliχ1037 recipient; settings: donor E. coli K12 J5-3 (R386)
Description: as §1, §2, §3, §4

[4] = system: E. coli K12 J5-3 (R27) donor to E. coliχ1037 recipient; settings: donor E. coli K12 J5-3 (R27)
Description: as §1, §2, §3, §4

[5] = system: E. coli K12 F′lac2 donor to E. coliχ1037 recipient
Description: as §1, §2, §3, §4

[6] = system: E. coli K 12 F′lac1 donor to E coliχ1037 recipient
Description: as §1, §2, §3, §4

[7] = system: RN 4220 S. aureus, plasmid pBI 109 PGL; format: cell-based; settings: without substance 68.7
[8] = system: E. coli K12 F′lac (PBR322) plasmid; format: cell-based
Description: (§5) We made a dilution of 10^−4 from a preliminary culture of 16 hours of E. coli strains containing R-factor, and dosed 0.05 ml therefrom into a broth culture medium MTE of 5 ml. We completed the cultures with the examined compounds in different concentrations and kept them at the temperature 37° C. during 24 to 48 hours without aeration. We made different dilutions from the cultures and streaked 0.1 ml of them onto EP agar plates. Having incubated them during the night we made a replication from the plates containing the cultures onto plates containing the corresponding antibiotics.
The plates containing antibiotics were incubated at 37° C. during 24 hours then the settlements of bacteria on them were compared to those on the master plates and the requirement of nutrition of the bacteria was examined.

[9] = system: RN 4220 S. aureus, plasmid pIP 856; format: cell-based; settings: without substance 2.3
[10] = system: RN 4220 S. aureus, plasmid pCRG 1600; format: cell-based; settings: without substance 2.1
[11] = system: plasmid; assay: In vitro experiments for antiplasmid effect (plasmid eliminating ability); format: cell-based; settings: for Plasmid eliminating ability: in concentration of 50 μg/ml; for Plasmid eliminating ability / Eliminating ability (in words): in vitro
Text: The elimination of R-plasmids and F′lac plasmids, as well as inhibition of transmission of R-plasmid transfer were studied.
These are the compounds under mark FC-1181, FC-1186 and Sila-439. The compound sila-429 (75%) was compared against three representatively antibiotic resistant strains of bacteria, as follows: the polyresistant Acinetobacter anitratus, the resistant to gentamycine staphylococcus aureus and the Methycilline resistant Staphylococcus aureus strains.
as §5
(§6) We made a dilution of 10^−4 from a culture of 16 hours of the bacteria strain K12 LE140 of E. coli and we inoculated 0.05 ml (1 to 5×10^3 cells) of it into 5 ml of broth culture medium MTE. The cultures with plasmid eliminating compounds added in different concentrations were incubated at 37° C. during 24 hours. We made dilutions from the contents of tubes, in which growth of bacteria were detected, then 0.1 ml of these dilutions were streaked onto EMB agar. The plates were incubated at 37° C. during 24 hours, then we counted the settlements of bacteria of types lac^+ and lac^−, which provides basis to calculate the percent of inhibition.

[12] = system: E. coli; assay: Bacteriostatic effect (MIC), serial dilution in liquid culture medium; format: cell-based
[13] = system: F′lac plasmid of E. coli K12; format: cell-based
Description: as §6

[14] = system: mice
Description: We used the usual dose of inoculation i.e. 0,2 ml per 10 g weight. […] The exact definition of this value should be done in an institute dealing with toxicology and clinical pharmacology.

[15] = system: Acinetobactes anitratus (resistant to Chlorocid)
Description: (§7) The bacteriostatic effect was inspected on a liquid culture medium using method of serial dilution. We inoculated 0.05 ml of culture of the examined bacteria being in exponential phase (i.e. of optical density 0.4) in dilution by 10^−4 into broth culture medium MTE of 5 ml. The culture of E. coli of optical density 0.4 contained 4.1 to 5.2×10^8, the one of Staphylococcus aureus of similar density contained 2.2 to 8.2×10^7 settlement building units per ml. […] We examined thereafter the smallest concentration of each compound, which still inhibits the proliferation of the identical number of bacteria. The examinations for the antiplasmid effect could be begun after having been obtained the mentioned date, because these effects can be detected only at values lower than MIC.
(§8) The previously established MIC (minimal inhibiting concentration) values are as follows: […]

[16] = system: Staphylococcus aureus (resistant to gentamycine)
Description: as §7, §8

[17] = system: Escherichia coli (resistant to Chlorocid)
Description: as §7, §8

[18] = concentration of elimination 18 mg/ml
[19] = second line for FC-2006/C, concentration of elimination not given
[20] = concentration of elimination 62,5 mg/ml
[21] = concentration of elimination 312, mg/ml
[22] = concentration of elimination 25 mg/ml
[23] = concentration of elimination 33 mg/ml
[24] = dose of 500 mg/kg, intraperitoneal, 5 mice

## 4(dimethyl-n-butyl-silil-methyloxy)-benzoic acid-(3-pyridyl)-methylester-methoiodide [FC-2006/C]
[1]; plasmid pIP 855, 9.5 μg/ml
  Frequency of elimination (%): 69.2%
[2]; in concentration of 24.7 μg/ml, without substance 0.3 × 10^−1
  Frequency of transfer: 0.3 × 10^−3
[3]; in concentration of 24.7 μg/ml, without substance 0.5 × 10^−1
  Frequency of transfer: 0.9 × 10^−2
[4]; in concentration of 24.7 μg/ml, without substance 0.2 × 10
  Frequency of transfer: 0.2 × 10^−1
[5]; donor E. coli K12 F′lac2, in concentration of 24.7 μg/ml, without substance 0.6 × 10^−6
  Frequency of transfer: 3 × 10^−6
[6]; donor E. coli K 12 F′lac1, in concentration of 24.7 μg/ml, without substance 0.6 × 10^−6
  Frequency of transfer: 2.2 × 10^−6
[7]; plasmid pBI 109 PGL, 9.5 μg/ml
  Frequency of elimination (%): 94.4%
[8]; [18]
  Frequency of elimination (%) ApTC: 0%
  Frequency of elimination (%) TC: 0%
[8]; [19]
  Frequency of elimination (%) ApTC: 0%
  Frequency of elimination (%) TC: 0%
[9]; plasmid pIP 856, 9.5 μg/ml
  Frequency of elimination (%): 75.1%
[10]; plasmid pCRG 1600, 9.5 μg/ml
  Frequency of elimination (%): 32.6%
[11]
  Plasmid eliminating ability: outstanding plasmid eliminating ability
  Eliminating ability (in words): good eliminating ability
[11]; only to one E. coli plasmid
  Eliminating effect: ~100%
[12]
  MIC: 25 mg/mL
[13]; [18]
  Frequency of elimination (%) Lac: 0%
[13]; [19]
  Frequency of elimination (%) Lac: 0%

## CC[n+]1c(-c2ccccc2)c2cc(N)ccc2c2ccc(N)cc21 [Ethidium bromide, reference compound]
[1]; plasmid pIP 855, 1.95 μg/ml
  Frequency of elimination (%): 9.4%
[7]; plasmid pBI 109 PGL, 3.9 μg/ml
  Frequency of elimination (%): 88.2%
[8]; [20]
  Frequency of elimination (%) ApTC: 24%
  Frequency of elimination (%) TC: 30%
[8]; [21]
  Frequency of elimination (%) ApTC: 0%
  Frequency of elimination (%) TC: 10%
[9]; plasmid pIP 856, 1.95 μg/ml
  Frequency of elimination (%): 12.3%
[10]; plasmid pCRG 1600, 62.5 μg/ml
  Frequency of elimination (%): 2.8%
[13]; [20]
  Frequency of elimination (%) Lac: 0%
[13]; [21]
  Frequency of elimination (%) Lac: 0%

## CCCC[Si](C)(C)COc1ccc(C(=O)OCCC[N+](C)(C)C)cc1.[I-] [FC-2012, 4-(dimethyl-n-butyl-silil-methyloxy)-benzoic acid-3-dimethylamino-propyl-ester-methoiodide]
[1]; plasmid pIP 855, 7.8 μg/ml
  Frequency of elimination (%): 41.9%
[2]; in concentration of 30 μg/ml, without substance 1.2 × 10^−2
  Frequency of transfer: 1 × 10^−3***
[3]; in concentration of 30 μg/ml, without substance 0.4
  Frequency of transfer: 0.6 × 10^−1***
[4]; in concentration of 30 μg/ml, without substance 2.5 × 10^−4
  Frequency of transfer: 2.3 × 10^−4***
[5]; donor E. coli K12 F′lac2, in concentration of 15 μg/ml, without substance 0.2 × 10^−5
  Frequency of transfer: 0**
[6]; donor E. coli K 12 F′lac1, in concentration of 15 μg/ml, without substance 0.8 × 10^−6
  Frequency of transfer: 0**
[7]; plasmid pBI 109 PGL, 7.,8 μg/ml
  Frequency of elimination (%): 88.0%
[8]; [22]
  Frequency of elimination (%) ApTC: 2%
  Frequency of elimination (%) TC: 10%
[8]; [23]
  Frequency of elimination (%) ApTC: 27%
  Frequency of elimination (%) TC: 58%
[9]; plasmid pIP 856, 7.8 μg/ml
  Frequency of elimination (%): 34.6%
[10]; plasmid pCRG 1600, 7.8 μg/ml
  Frequency of elimination (%): 10.1%
[11]
  Eliminating ability (in words): good eliminating ability
[12]
  MIC: 39 mg/mL
[13]; [22]
  Frequency of elimination (%) Lac: 0%
[13]; [23]
  Frequency of elimination (%) Lac: 0%

## C[N+](C)(C)CCOC(=O)c1ccc(OCCC[Si](C)(C)C)cc1.[I-] [Sila-439, 4-(3-trimethyl-silil-propyloxy)-benzoic acid-2-dimethyl-amino-ethyl-ester-methoiodide]
[14]; 50 mg/kg (0.01 ml/mouse) i.p., 2 hours
  Toxicity (i.p), mice alive per mice inoculated: 5/5
[14]; 50 mg/kg (0.01 ml/mouse) i.p., 6 hours
  Toxicity (i.p), mice alive per mice inoculated: 5/5
[14]; 50 mg/kg (0.01 ml/mouse) i.p., 9 hours
  Toxicity (i.p), mice alive per mice inoculated: 5/5
[14]; 50 mg/kg (0.01 ml/mouse) i.p., 12 hours
  Toxicity (i.p), mice alive per mice inoculated: 5/5
[14]; 50 mg/kg (0.01 ml/mouse) i.p., 24 hours
  Toxicity (i.p), mice alive per mice inoculated: 5/5
[14]; 500 mg/kg (0.1 ml/mouse) i.p., 2 hours
  Toxicity (i.p), mice alive per mice inoculated: 0/5
[14]; dose of 50 mg/kg, intraperitoneal
  Condition of the mice after inoculation: lived and moved vividly exactly like those in the control group
[14]; [24]
  Mortality after inoculation: all the five mice died
  Spasms after inoculation: spasms occurred in the 5 inoculated mice in two minutes
[15]
  MIC (minimal inhibiting concentration): 0.08 mg/mL
[16]
  MIC (minimal inhibiting concentration): 180 μ/ml
[17]
  MIC (minimal inhibiting concentration): 0.07 mg/mL
[11]
  Concentration at which the antiplasmid effect manifests: 40 µg/mL
  Plasmid eliminating ability: outstanding plasmid eliminating ability
  Eliminating ability (in words): extraordinary good eliminating ability; also recorded: very good plasmid elimination effect
[11]; three compounds effective from 36 studied
  Antiplasmid effect in in vitro experiments: effective

Reference: patent US6765105B2, “Compound and pharmaceutical composition of antiplasmid effect and the preparation thereof” (priority 2000, dated 2004)
